Values of other authors, collected in EP0438554B1, “NITROGENOUS AMBRUTICINES, PROCESS FOR OBTAINING THEM AND THEIR USE” (Gesellschaft für Biotechnologische Forschung mbH (GBF), priority 1989, dated 1991).

Conditions: in vitro; S.M. Ringel et al., J. of Antibiotics 30, 371 (1977)

CC[C@H]1O[C@@H](/C(C)=C/[C@H](C)/C=C/[C@H]2[C@@H](C)[C@@H]2/C=C/[C@@H]2O[C@H](CC(=O)O)C[C@H](O)[C@H]2O)CC=C1C [Ambruticin]
antibakterielle Wirkung: schwach antibakterielle
